Laboratory results from ChEMBL document CHEMBL5512599, “Synthetic non-toxic anti-biofilm agents as a strategy in combating bacterial resistance” (Eur J Med Chem, 2023).
≈ marks a conversion by molar mass, not a printed value. One block for each compound: values may come before it.

Experiments:
Staphylococcus aureus [1] = assay: Antibiofilm activity against Staphylococcus aureus ATCC 33862 assessed as reduction in biofilm formation at 20 uM incubated for 24 hrs by absorbance based assay relative to control; format: functional; design: scale not given: the % may be the effect or the level left
Pseudomonas aeruginosa [2] = assay: Antibiofilm activity against Pseudomonas aeruginosa ATCC 10145 assessed as reduction in biofilm formation at 20 uM incubated for 24 hrs by absorbance based assay relative to control; format: functional; design: scale not given: the % may be the effect or the level left
[3] = Inhibition of Quorum sensing system Las in Pseudomonas aeruginosa PAO1 assessed as reduction in interaction with LasR regulator
[4] = Inhibition of quorum sensing system in Pseudomonas aeruginosa PAO1 assessed as inhibition of pyocyanin production at 256 ug/ml incubated for 24 hrs by absorbance based assay
Pseudomonas aeruginosa [5] = assay: Antibiofilm activity against Pseudomonas aeruginosa PAO1 assessed as inhibition of biofilm formation at 100 uM relative to control; format: functional; design: scale not given: the % may be the effect or the level left
Staphylococcus aureus [6] = assay: Antibiofilm activity against Methicillin-resistant Staphylococcus aureus ATCC BAA-4A assessed as inhibition of biofilm formation; format: functional, organism-based
[7] = target: T1, Transcriptional regulator MvfR (Pseudomonas aeruginosa PA14, UniProt A0A072ZLE6); assay: Inhibition of PqsR-mediated quorum sensing system in Pseudomonas aeruginosa PAO1 assessed as reduction in pyocyanin production
T1 sequence (A0A072ZLE6 whole entry): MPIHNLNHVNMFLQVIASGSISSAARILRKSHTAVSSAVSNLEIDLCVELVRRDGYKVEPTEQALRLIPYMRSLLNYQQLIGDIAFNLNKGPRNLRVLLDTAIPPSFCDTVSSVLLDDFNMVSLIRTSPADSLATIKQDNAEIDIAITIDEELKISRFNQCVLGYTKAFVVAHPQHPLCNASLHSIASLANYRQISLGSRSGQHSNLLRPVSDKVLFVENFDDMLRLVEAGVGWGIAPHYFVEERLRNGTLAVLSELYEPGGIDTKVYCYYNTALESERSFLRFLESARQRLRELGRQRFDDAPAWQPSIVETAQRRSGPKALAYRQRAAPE

Staphylococcus aureus [8] = assay: Antibiofilm activity against Staphylococcus aureus ATCC 25923 at 25 ug/ml measured after 24 hrs by crystal violet staining based analysis relative to control; format: functional; conditions: dose 25 µg/ml
Staphylococcus aureus [9] = assay: Antimicrobial activity against Staphylococcus aureus ATCC 25923 assessed as reduction in bacterial growth at 0.5 uM incubated for 16 hrs by broth dilution method relative to control; format: functional; design: scale not given: the % may be the effect or the level left
Staphylococcus aureus [10] = assay: Antimicrobial activity against Staphylococcus aureus ATCC 25923 assessed as reduction in bacterial growth at 0.25 uM incubated for 16 hrs by broth dilution method relative to control; format: functional; design: scale not given: the % may be the effect or the level left
Staphylococcus aureus [11] = assay: Antimicrobial activity against Staphylococcus aureus ATCC 25923 assessed as reduction in bacterial growth at 0.12 uM incubated for 16 hrs by broth dilution method relative to control; format: functional; design: scale not given: the % may be the effect or the level left
Enterococcus faecalis [12] = assay: Antibacterial activity against Enterococcus faecalis ATCC 29212 assessed as bacterial growth inhibition incubated for 15 to 18 hrs by Muller hinton broth based dilution assay; format: functional; conditions: time 15-18 hrs
Enterococcus faecalis [13] = assay: Antibiofilm activity against Enterococcus faecalis ATCC 29212 assessed as biofilm eradication incubated for 20 mins by crystal violet staining based analysis; format: functional
Pseudomonas aeruginosa [14] = assay: Antibiofilm activity against Pseudomonas aeruginosa PA14 assessed as inhibition of biofilm formation incubated for 24 hrs by microscopic analysis; format: functional, organism-based; conditions: PA14, 24 h
Staphylococcus aureus [15] = assay: Antibiofilm activity against methicillin-resistant Staphylococcus aureus assessed as inhibition of biofilm formation incubated for overnight by crystal violet staining based microtiter plate assay; format: functional, organism-based
Staphylococcus aureus [16] = assay: Antibacterial activity against Staphylococcus aureus ATCC 25923 assessed as reduction in bacterial growth incubated for 18 to 24 hrs by broth microdilution method; format: functional; conditions: time 18-24 hrs
Staphylococcus aureus [17] = assay: Antibacterial activity against Staphylococcus aureus ATCC 29213 assessed as reduction in bacterial growth incubated for 18 to 24 hrs by broth microdilution method; format: functional; conditions: time 18-24 hrs
Staphylococcus aureus [18] = assay: Antibacterial activity against Staphylococcus aureus ATCC 6538 assessed as reduction in bacterial growth incubated for 18 to 24 hrs by broth microdilution method; format: functional; conditions: time 18-24 hrs
[19] = test system: Staphylococcus epidermidis; assay: Antibacterial activity against Staphylococcus epidermidis RP62A assessed as reduction in bacterial growth incubated for 18 to 20 hrs by broth microdilution assay; format: functional; conditions: time 18-20 hrs
[20] = Inhibition of Staphylococcus aureus sortase A by FRET assay
[21] = target: T1, Transcriptional regulator MvfR; assay: Antagonist activity at PqsR in wild-type Pseudomonas aeruginosa PAO1 assessed as reduction in AQ level at 0.2 uM by LCMS/MS analysis
[22] = target: T1, Transcriptional regulator MvfR; assay: Antagonist activity at PqsR in wild-type Pseudomonas aeruginosa PAO1-L
Pseudomonas aeruginosa [23] = assay: Antibiofilm activity against Pseudomonas aeruginosa PAO1 assessed as inhibition of biofilm formation at 64 microg/ml incubated for 24 hrs by BacTiter Glo reagent based luminescence analysis relative to control; format: functional; design: scale not given: the % may be the effect or the level left; conditions: dose 64 µg/ml

SMILES: CCCCCCCCCCCCCC(=O)Nc1c(N)[nH]c2ccccc2c1=O
- Activity (Staphylococcus aureus [1]): >=50%
- Activity (Pseudomonas aeruginosa [2]): >=50%

- IC50 [3]: 80 µM
SMILES: CCCCCCCCCC(=O)NC1CCCC1 [N-CYCLOPENTYLDECANAMIDE]

- IC50 [4]: 17 µM
SMILES: N#Cc1ccnc(C(F)F)c1
- Activity (Pseudomonas aeruginosa [5]): 73%

SMILES: CCCCCc1ccc(C(=O)NCCn2cc(CCCCCc3[nH]cnc3-c3ccc4c(c3)OCO4)nn2)cc1
- IC50 (Staphylococcus aureus [6]): 3.7 µM

SMILES: Clc1ccc2c(NCCCCCCCCNCc3cc4ccccc4s3)ccnc2c1
- IC50 [7]: 30 µM

SMILES: Cc1nn(C)c([N-]C(=O)c2ccc(Cl)cc2)c1[N+]#N
- Activity (Staphylococcus aureus [8]): 69%

SMILES: Cc1ccc(C(=O)c2nn(-c3nc(-c4ccccc4)c(-c4sc(-n5nc(C(=O)c6ccc(C(F)(F)F)cc6)c(C(N)=O)c5N)nc4-c4ccccc4)s3)c(N)c2C(N)=O)cc1
- Activity (Staphylococcus aureus [9]): 77%
- Activity (Staphylococcus aureus [10]): 50%
- Activity (Staphylococcus aureus [11]): 35%

- MIC (Enterococcus faecalis [12]): 0.062 µg/mL (≈ 0.147 µM)
SMILES: N#Cc1ccc(-c2csc(-c3ccc(-c4cnc(-c5ccccc5)s4)cc3)n2)cc1
- MBEC (Enterococcus faecalis [13]): 0.002 µg/mL

SMILES: CCCCCCCCCCCC(=O)Nc1cc(=O)c2ccccc2[nH]1
- Activity (Staphylococcus aureus [1]): >=50%
- Activity (Pseudomonas aeruginosa [2]): >=50%

- IC50 (Pseudomonas aeruginosa [14]): 43 µM
SMILES: CCCCCCCNC(=O)CCc1c[nH]c(N)n1

SMILES: C/C(=C\c1ccc2ccccc2c1)Cn1cc(CCCCCc2c[nH]c(N)n2)nn1
- IC50 (Staphylococcus aureus [15]): < 10 µM

- MIC (Staphylococcus aureus [16]): > 270 µM
- MIC (Staphylococcus aureus [17]): > 270 µM
- MIC (Staphylococcus aureus [18]): > 270 µM
- MIC [19]: > 270 µM
- IC50 [20]: 50 µM
SMILES: CC(=O)/C(=N\Nc1ccc(Cl)c(Cl)c1)C(=O)O

- IC50 [4]: 35 µM
SMILES: O=C(c1ccc(Cl)cc1)c1ccnc(C(F)F)c1
- Activity (Pseudomonas aeruginosa [5]): 71%

SMILES: N#CCc1ccc(OC[C@H](O)Cn2cnc3ccc(Cl)cc3c2=O)cc1
- IC50 [21]: 1.1 µM

SMILES: CCCCCCCCCc1nc2cc(F)ccc2c(=O)n1N
- IC50 [22]: 1.2 µM

- MIC (Enterococcus faecalis [12]): 0.032 µg/mL (≈ 0.0742 µM)
SMILES: Clc1ccc(-c2csc(-c3ccc(-c4cnc(-c5ccccc5)s4)cc3)n2)cc1
- MBEC (Enterococcus faecalis [13]): 0.016 µg/mL

- IC50 (Pseudomonas aeruginosa [14]): 19 µM
SMILES: CCCCCCCCCCCc1c[nH]c(N)n1

- MIC (Staphylococcus aureus [16]): > 270 µM
- MIC (Staphylococcus aureus [17]): > 270 µM
- MIC (Staphylococcus aureus [18]): > 270 µM
- MIC [19]: > 270 µM
- IC50 [20]: 57 µM
SMILES: CC(=O)/C(=N\Nc1ccc([N+](=O)[O-])cc1)C(=O)O

SMILES: CCCCCCCCCCCCCCCC(=O)Nc1c(N)[nH]c2ccccc2c1=O
- Activity (Staphylococcus aureus [1]): >=50%
- Activity (Pseudomonas aeruginosa [2]): >=50%

- MIC (Enterococcus faecalis [12]): 0.062 µg/mL (≈ 0.14 µM)
SMILES: O=[N+]([O-])c1ccc(-c2csc(-c3ccc(-c4cnc(-c5ccccc5)s4)cc3)n2)cc1
- MBEC (Enterococcus faecalis [13]): 0.002 µg/mL

- MIC (Enterococcus faecalis [12]): 0.25 µg/mL (≈ 0.549 µM)
SMILES: NC(=O)c1cc(-c2csc(-c3ccc(-c4cnc(-c5ccccc5)s4)cc3)n2)ccc1O
- MBEC (Enterococcus faecalis [13]): 0.008 µg/mL

SMILES: CCCCCCCCCc1nc2cc(Cl)ccc2c(=O)n1N
- IC50 [22]: 1.2 µM

SMILES: Cc1ccc(C(=O)c2nn(-c3nc(-c4ccccc4)c(-c4sc(-n5nc(C(=O)c6ccc(C(F)(F)F)cc6)c(C#N)c5N)nc4-c4ccccc4)s3)c(N)c2C#N)cc1
- Activity (Staphylococcus aureus [9]): 35%
- Activity (Staphylococcus aureus [10]): 20%
- Activity (Staphylococcus aureus [11]): 15%

SMILES: CCCCCc1ccc(C(=O)NCCn2cc(CCCCCc3[nH]cnc3-c3ccoc3)nn2)cc1
- IC50 (Staphylococcus aureus [6]): 3.7 µM

SMILES: O=C(CCCCCOc1cccc(C(F)(F)F)c1)NNC(=O)Cn1c(=O)oc2ccccc21
- inhibition ([4]; dose 256.0 µg/ml): 63%
- Activity (Pseudomonas aeruginosa [23]): 45%

- IC50 [3]: 250 µM
SMILES: CCCCCCCC(=O)NC1CCCC1
